Measured values published in ChEMBL document CHEMBL1201862, “PubChem BioAssay data set” (2004).
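Exposure lasted 48 hours, with cells grown in 96-well plates and compounds tested at five concentrations. GI50 = concentration required for 50% inhibition of growth.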 The source made the active and inactive calls. Cut-off read from the data, not from the text of the source: active = GI50 up to about 1.1 µM and inactive = higher.

Legend:
Assay in all cases: NCI tumour cell line growth inhibition, 48 h
HT-29 = test system: HT-29
LXFL 529 = test system: LXFL 529
NCI-H460 = test system: NCI-H460
HCT-116 = test system: HCT-116
TK-10 = test system: TK-10
OVCAR-8 = test system: OVCAR-8
NCI-H522 = test system: NCI-H522
UO-31 = test system: UO-31
K562 = test system: K562
NCI-H226 = test system: NCI-H226
HL-60 = test system: HL-60
U-251 = test system: U-251
SK-MEL-5 = test system: SK-MEL-5
CCRF-CEM = test system: CCRF-CEM
SF-539 = test system: SF-539
OVCAR-3 = test system: OVCAR-3
UACC-257 = test system: UACC-257
SK-MEL-28 = test system: SK-MEL-28
COLO 205 = test system: COLO 205
SF-295 = test system: SF-295
KM12 = test system: KM12
M19-MEL = test system: M19-MEL
OVCAR-5 = test system: OVCAR-5
SK-OV-3 = test system: SK-OV-3
HOP-62 = test system: HOP-62
SW-620 = test system: SW-620
DLD-1 = test system: DLD-1
HOP-18 = test system: HOP-18
SF-268 = test system: SF-268
UACC-62 = test system: UACC-62
HOP-92 = test system: HOP-92
A498 = test system: A498
IGROV-1 = test system: IGROV-1
SNB-19 = test system: SNB-19
NCI-H23 = test system: NCI-H23
HCC 2998 = test system: HCC 2998
SNB-75 = test system: SNB-75
ACHN = test system: ACHN
A549 = test system: A549
SN12C = test system: SN12C
KM-20L2 = test system: KM-20L2
DMS-114 = test system: DMS-114
SK-MEL-2 = test system: SK-MEL-2
786-0 = test system: 786-0
MOLT-4 = test system: MOLT-4
LOX IMVI = test system: LOX IMVI
CAKI-1 = test system: CAKI-1
Malme-3M = test system: Malme-3M
HCT-15 = test system: HCT-15
DMS-273 = test system: DMS-273
EKVX = test system: EKVX
OVCAR-4 = test system: OVCAR-4
SNB-78 = test system: SNB-78
XF498 = test system: XF498
M14 = test system: M14
RXF 393 = test system: RXF 393

Nc1c(C(=O)N/N=C/c2ccc(Cl)cc2)sc(=S)n1-c1ccccc1
GI50 (HT-29): > 100 µM (inactive) | GI50 (LXFL 529): > 100 µM (inactive) | GI50 (NCI-H460): 89.1 µM (inactive) | GI50 (HCT-116): > 100 µM (inactive) | GI50 (TK-10): > 100 µM (inactive) | GI50 (OVCAR-8): > 100 µM (inactive) | GI50 (NCI-H522): 31.6 µM (inactive) | GI50 (UO-31): > 100 µM (inactive) | GI50 (K562): 4.09 µM (inactive) | GI50 (NCI-H226): > 100 µM (inactive) | GI50 (HL-60): > 100 µM (inactive) | GI50 (U-251): > 10 µM (inactive) | GI50 (SK-MEL-5): 58.2 µM (inactive) | GI50 (CCRF-CEM): 22.3 µM (inactive) | GI50 (SF-539): 62.8 µM (inactive) | GI50 (OVCAR-3): > 100 µM (inactive) | GI50 (UACC-257): > 100 µM (inactive) | GI50 (SK-MEL-28): 41.9 µM (inactive) | GI50 (COLO 205): > 100 µM (inactive) | GI50 (SF-295): > 100 µM (inactive) | GI50 (KM12): > 100 µM (inactive) | GI50 (M19-MEL): > 100 µM (inactive) | GI50 (OVCAR-5): > 100 µM (inactive) | GI50 (SK-OV-3): > 100 µM (inactive) | GI50 (HOP-62): > 100 µM (inactive) | GI50 (SW-620): > 100 µM (inactive) | GI50 (DLD-1): > 100 µM (inactive) | GI50 (HOP-18): > 100 µM (inactive) | GI50 (SF-268): 40.8 µM (inactive) | GI50 (UACC-62): > 100 µM (inactive) | GI50 (HOP-92): > 100 µM (inactive) | GI50 (A498): > 100 µM (inactive) | GI50 (IGROV-1): > 100 µM (inactive) | GI50 (SNB-19): > 100 µM (inactive) | GI50 (NCI-H23): > 100 µM (inactive) | GI50 (HCC 2998): > 100 µM (inactive) | GI50 (SNB-75): 84.7 µM (inactive) | GI50 (ACHN): > 100 µM (inactive) | GI50 (A549): > 100 µM (inactive)

N#C/C(=C1\SC(/N=N/c2ccccc2)C(=O)N1c1ccccc1)c1nc2ccccc2[nH]1 (configuration not stated)
GI50 (HT-29): > 100 µM (inactive) | GI50 (LXFL 529): > 100 µM (inactive) | GI50 (SN12C): > 100 µM (inactive) | GI50 (NCI-H460): 36.1 µM (inactive) | GI50 (HCT-116): > 100 µM (inactive) | GI50 (KM-20L2): > 100 µM (inactive) | GI50 (TK-10): 48.9 µM (inactive) | GI50 (DMS-114): > 100 µM (inactive) | GI50 (OVCAR-8): > 100 µM (inactive) | GI50 (NCI-H522): > 100 µM (inactive) | GI50 (UO-31): 24.2 µM (inactive) | GI50 (K562): 36.3 µM (inactive) | GI50 (SK-MEL-2): 68.5 µM (inactive) | GI50 (NCI-H226): 71.1 µM (inactive) | GI50 (HL-60): 48.8 µM (inactive) | GI50 (U-251): 54.2 µM (inactive) | GI50 (786-0): 7.35 µM (inactive) | GI50 (SK-MEL-5): 57 µM (inactive) | GI50 (CCRF-CEM): 42.8 µM (inactive) | GI50 (MOLT-4): 26.1 µM (inactive) | GI50 (SF-539): 29.7 µM (inactive) | GI50 (OVCAR-3): 68.1 µM (inactive) | GI50 (LOX IMVI): > 100 µM (inactive) | GI50 (UACC-257): 78.2 µM (inactive) | GI50 (SK-MEL-28): > 100 µM (inactive) | GI50 (COLO 205): > 100 µM (inactive) | GI50 (CAKI-1): > 100 µM (inactive) | GI50 (SF-295): 61.2 µM (inactive) | GI50 (M19-MEL): > 100 µM (inactive) | GI50 (OVCAR-5): > 100 µM (inactive) | GI50 (Malme-3M): > 100 µM (inactive) | GI50 (SK-OV-3): 66.5 µM (inactive) | GI50 (HOP-62): 23.4 µM (inactive) | GI50 (HCT-15): > 100 µM | GI50 (SW-620): > 100 µM (inactive) | GI50 (DMS-273): 45.7 µM (inactive) | GI50 (EKVX): > 100 µM (inactive) | GI50 (DLD-1): > 100 µM (inactive) | GI50 (OVCAR-4): 66.7 µM (inactive) | GI50 (SNB-78): > 100 µM (inactive) | GI50 (SF-268): > 100 µM (inactive) | GI50 (UACC-62): > 100 µM (inactive) | GI50 (HOP-92): 23.5 µM (inactive) | GI50 (A498): > 100 µM (inactive) | GI50 (IGROV-1): 20.5 µM (inactive) | GI50 (XF498): 17.7 µM (inactive) | GI50 (SNB-19): > 100 µM (inactive) | GI50 (NCI-H23): > 100 µM (inactive) | GI50 (M14): 78.2 µM (inactive) | GI50 (RXF 393): 28.6 µM (inactive) | GI50 (SNB-75): 36.7 µM (inactive) | GI50 (ACHN): > 100 µM (inactive) | GI50 (A549): > 100 µM (inactive)
